# System: Rabbit Model of Spinal Cord Ischemia
# Test: Infarct size of spinal cords by TTC staining
# Assay type: in vivo, New Zealand White rabbits
# Conditions: for Infarct size as a percentage of the area of the whole gray matter: mid lumbar, 48 hours after spinal cord ischemia, control 54.7±19.8%
# Procedure: Twenty-six male New Zealand White rabbits weighting 2.2 to 3.0 kg were used in this experiment. Spinal cord ischemia was induced by occluding the abdominal aorta with […] for 20 minutes just distal to the renal arteries. Surgical preparation was conducted according to the method described in the literature, Terada H. et. al., J. Thorac. Cardiovasc. Surg. 2001; 122: 979-85. A 24-gauge venous catheter was placed in the marginal ear vein for drug administration. The rabbits were anesthetized with intravenous sodium pentobarbital (25 mg/kg) and allowed to breathe spontaneously. Lidocaine (0.5%) was administered at the site of the skin incision as local anesthesia. The left common carotid artery was cannulated with a 24-gauge catheter for monitoring the arterial pressure. Core body temperature was continuously monitored with a rectal probe and was maintained at 38.5° C. with the aid of heating lamp. The infrarenal abdominal aorta was exposed through a transperitoneal approach. After systemic heparinization (200 U/kg), spinal cord ischemia was induced by occluding the abdominal aorta with […] for 20 minutes just distal to the renal arteries and just above the aortic bifurcation. Then, the […] released, and the flank was closed. […] The rabbits were assigned randomly to 1 of the 4 groups and subjected to the treatment of (1) above in the following manner. The sham group (n=3) underwent the same operation without aortic occlusion. The control group (n=7) received saline (1 ml) intravenously 15 minutes before aortic occlusion. NS-7 (1 mg/kg) was administered intravenously as a bolus dose 15 minutes before aortic occlusion in group A (n=8) or just after releasing the […] onset of reperfusion) in group B (n=8). All animals were killed by means of a lethal injection of pentobarbital (200 mg/kg) 48 hours after operation. […] The area of infarction was calculated with National Institutes of Health Image software. The infarct size was expressed as a percentage of the area of the whole gray matter. […]
structure (smiles),measurement,setting,value
"Cc1cc(-c2ccc(F)cc2)cc(OCCCCCN2CCCCC2)n1.Cl [NS-7, 4-(4-Fluorophenyl)-2-methyl-6-(5-piperidinopentyloxy)pyridine hydrochloride]",Infarct size as a percentage of the area of the whole gray matter,NS-7 1 mg/kg i.v. at the onset of reperfusion (group B),12.1±12.8%
same,Infarct size as a percentage of the area of the whole gray matter,NS-7 1 mg/kg i.v. injected before ischemia (group A),14.0±14.3%
same,Gray matter infarction in TTC-stained sections (FIG. 1),"NS-7 before ischemia or at the onset of reperfusion, mid lumbar level",Minimal gray matter infarction

# From patent publication US20070021451A1, “Method for preventing or treating neurologic damage after spinal cord injury” (HAMAMATSU UNIVERSITY SCHOOL OF MEDICINE, priority 2005, published 2007)
